Measured values: US6262073A, “Pharmaceutical methods of use of 5-substituted and 5,5 disubstituted-3,4-dihydroxy-2(5H)-furanones” (Oxis International Inc., priority 2000, dated 2001)
pIC50: −log10 of the molar value.

How the values were obtained:
Type in all cases: biochemical
[1] = target: T1, Cyclooxygenase-2 (prostaglandin H synthetase-2) from sheep placenta (Ovis aries, UniProt P79208); experiment: Cyclooxygenase-2 screen (COX-2); details: read-out: COX-2 percent inhibition
T1 construct: cyclooxygenase-2 from sheep placenta; from tissue; host or cells: sheep placenta
T1 sequence (P79208 17-603): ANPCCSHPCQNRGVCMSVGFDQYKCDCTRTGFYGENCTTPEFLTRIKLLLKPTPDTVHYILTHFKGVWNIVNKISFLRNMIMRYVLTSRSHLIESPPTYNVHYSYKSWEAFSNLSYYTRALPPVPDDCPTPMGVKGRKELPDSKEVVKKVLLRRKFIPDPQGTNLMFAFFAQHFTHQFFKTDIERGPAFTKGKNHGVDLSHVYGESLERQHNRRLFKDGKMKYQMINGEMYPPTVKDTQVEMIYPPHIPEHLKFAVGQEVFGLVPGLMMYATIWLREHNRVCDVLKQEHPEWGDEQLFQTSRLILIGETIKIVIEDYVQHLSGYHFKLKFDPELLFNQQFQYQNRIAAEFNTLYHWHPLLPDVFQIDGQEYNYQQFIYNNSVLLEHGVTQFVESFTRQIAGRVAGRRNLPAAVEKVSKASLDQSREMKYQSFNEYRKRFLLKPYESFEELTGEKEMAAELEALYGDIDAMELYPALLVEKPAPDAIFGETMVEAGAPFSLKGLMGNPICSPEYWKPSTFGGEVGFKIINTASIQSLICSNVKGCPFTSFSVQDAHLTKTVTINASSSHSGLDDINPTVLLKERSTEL
Procedure: (§1) The compounds of the invention were screened for their anti-inflammatory activity using a series of in vitro tests the details of which are given below. The activity of various compounds against 5-lipoxygenase, cycloxygenase-1, cycloxygenase-2 and lipid peroxidase was evaluated. Results of the screening procedures are included in TABLE I, and the activity against 5-lipoxygenase at a test concentration of 1 μM in Table II.
Cyclooxygenase-2, also known as prostaglandin H synthetase-2, catalyzes the rate- limiting step in the synthesis of inflammatory prostaglandins. In this reaction cyclooxygenase-2 catalyzes the oxygenation of unesterified precursors to form cyclic endoperoxide derivatives, including prostaglandin H. Briefly, cyclooxygenase-2 from sheep placenta, 14 μg/assay tube, is incubated with arachidonic acid (500 μM) for 1.5 minutes at 27° C. in the absence or presence of test compounds according to the methods of A. T. Evans, et al., Biochem Pharm. […] Res. Comm. […] Compounds are screened at 300 μM.

[2] = target: T2, 5-Lipoxygenase (crude enzyme preparation from rat basophilic leukemia cells, RBL-1) (Rattus norvegicus, UniProt P12527); experiment: 5-Lipoxygenase screen (5-LO), 5-HETE by RIA; details: for inhibition at 30 µM: read-out: 5-LO percent inhibition; for inhibition at 1 µM: read-out: Percent inhibition of 5-LO, test conc. 1 μM (Table II)
T2 construct: crude enzyme preparation from rat basophilic leukemia cells (RBL-1); endogenous in cells; host or cells: rat basophilic leukemia cells (RBL-1)
T2 sequence (P12527 1-673): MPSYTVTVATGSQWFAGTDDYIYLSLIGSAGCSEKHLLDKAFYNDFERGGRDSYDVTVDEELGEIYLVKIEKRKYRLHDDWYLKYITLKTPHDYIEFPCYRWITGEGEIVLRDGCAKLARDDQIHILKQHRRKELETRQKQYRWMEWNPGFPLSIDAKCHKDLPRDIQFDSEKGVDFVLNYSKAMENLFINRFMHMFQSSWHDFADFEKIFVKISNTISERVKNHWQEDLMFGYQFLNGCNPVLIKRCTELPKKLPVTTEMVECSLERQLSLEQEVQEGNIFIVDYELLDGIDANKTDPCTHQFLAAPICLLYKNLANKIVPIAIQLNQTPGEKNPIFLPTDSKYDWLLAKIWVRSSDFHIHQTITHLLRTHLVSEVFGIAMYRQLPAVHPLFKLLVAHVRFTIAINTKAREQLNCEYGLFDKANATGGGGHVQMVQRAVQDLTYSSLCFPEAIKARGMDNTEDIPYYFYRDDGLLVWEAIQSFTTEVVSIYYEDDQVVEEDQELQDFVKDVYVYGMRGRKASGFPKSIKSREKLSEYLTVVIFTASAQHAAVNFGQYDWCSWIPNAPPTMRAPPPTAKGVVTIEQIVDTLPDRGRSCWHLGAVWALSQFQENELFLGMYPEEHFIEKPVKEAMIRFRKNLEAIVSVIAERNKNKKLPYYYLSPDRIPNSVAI
Procedure: as §1
5-Lipoxygenase catalyzes the oxidative metabolism of arachidonic acid to […] (5-HETE), the initial reaction leading to the formation of the leukotrienes. Briefly, the testing procedure utilizes a crude enzyme preparation from rat basophilic leukemia cells (RBL-1) according to the methods of T. Shimuzu et al. Pro. […] Test compounds are pre-incubated with the enzyme preparation for 5 minutes at room temperature and the reaction is initiated by the addition of arachidonic acid. Following an 8 minute incubation at room temperature, the reaction is terminated by the addition of citric acid and concentrations of 5-HETE are determined by RIA. Compounds are screened at 30 μM.

[3] = system: Lipid peroxidation (rat liver microsomes); experiment: Lipid peroxidation screen (LPO), CCl4-induced, liver microsomes; details: for LPO percent inhibition: 300 μM
Procedure: as §1
Lipid peroxidation is a consequence of various stimuli, including reactive free radicals. Polyunsaturated fatty acids associated with plasma membranes are degraded due to enzymatic induction by reactive agents such as CCl4, leading to cellular damage. Briefly, microsomes are prepared from rat livers and the protein concentration is determined according to the method of D. Mansuy et al., Biochem. Biophys. Res. Comm. 135:1015-1021(1986). A reaction mixture consisting of 2 mg of the microsomal preparation, an NADPH generating system, 20 mM CCl4 and test compound are incubated for 12 minutes at 37° C. The reaction is terminated by the addition of a mixture of thiobarbituric acid and trichloroacetic acid. The absorbance is read at 535 nm and is proportional to the concentration of malondialdehyde. Compounds are screened at 300 μM.

[4] = target: T3, Cyclooxygenase-1 (cyclooxygenase from ram seminal vesicles) (Ovis aries, UniProt P05979); experiment: Cyclooxygenase-1 screen (COX-1); details: 300 μM
T3 construct: cyclooxygenase from ram seminal vesicles; from tissue; host or cells: ram seminal vesicles
T3 sequence (P05979 25-600): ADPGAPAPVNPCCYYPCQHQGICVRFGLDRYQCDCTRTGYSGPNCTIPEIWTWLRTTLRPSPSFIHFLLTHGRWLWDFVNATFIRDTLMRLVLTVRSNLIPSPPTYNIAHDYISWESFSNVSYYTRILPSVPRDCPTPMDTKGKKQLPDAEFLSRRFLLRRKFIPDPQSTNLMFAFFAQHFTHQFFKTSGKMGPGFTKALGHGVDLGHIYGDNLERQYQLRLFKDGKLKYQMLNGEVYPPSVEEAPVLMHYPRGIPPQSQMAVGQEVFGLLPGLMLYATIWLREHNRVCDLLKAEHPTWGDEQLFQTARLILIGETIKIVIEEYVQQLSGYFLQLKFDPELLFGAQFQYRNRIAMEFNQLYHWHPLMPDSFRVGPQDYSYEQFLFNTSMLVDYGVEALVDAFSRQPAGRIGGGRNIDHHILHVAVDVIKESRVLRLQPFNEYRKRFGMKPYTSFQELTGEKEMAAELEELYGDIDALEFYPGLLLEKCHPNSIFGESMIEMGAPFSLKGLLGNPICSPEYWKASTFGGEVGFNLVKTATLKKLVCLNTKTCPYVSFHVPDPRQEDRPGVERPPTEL
Procedure: as §1
Cyclooxygenase-1 is involved in the formation of prostaglandins and thromboxane via the oxidative metabolism of arachidonic acid. Briefly, cyclooxygenase from ram seminal vesicles is incubated with arachidonic acid (100 μm) for 2 minutes at 37° C. in the presence or absence of test compounds according to the methods of A. T. Evans et al., Biochem. Pharm. 36:2035-2037(1987) and R. Boopathy et al., Biochem J. 239:371-377 (1968). The assay is terminated by the addition of trichioroacetic acid and cyclooxygenase activity is determined by reading the absorbance at 530 nm. […]

SMILES | inhibition at 300 µM [1] [%] | inhibition at 30 µM [2] [%] | LPO percent inhibition [3] [%] | COX-1 percent inhibition [4] [%] | inhibition at 1 µM [2] [%] | pIC50 ([3]; reference compound under screen conditions)
CCCS(=O)(=O)Cc1ccccc1C#CCCC1OC(=O)C(O)=C1O (stereo not drawn) [Example 35, 3,4-Dihydroxy-5-[(4-(2-(propylsulfonyl)methyl)phenyl)-3-butynyl]-2(5H)-furanone] | 13 | 30 | 60 | 25 | – | –
O=C1OC(CCSc2cccc3ccccc23)C(O)=C1O (stereo not drawn) [Example 25, 3,4-Dihydroxy-5-[2-(naphthyl-1-thio)ethyl]-2(5H)-furanone] | 19 | 102 | 74 | 6 | 56 | –
O=C1OC(CCOc2ccc(-c3ccccc3)cc2)C(O)=C1O (stereo not drawn) [Example 22, 5-[2-((1,1'-Biphenyl)-4-oxy)ethyl]-3,4-dihydroxy-2(5H)-furanone] | 10 | 99 | 74 | 18 | 55 | –
CCC/C=C\Cc1ccccc1/C=C\CCC1OC(=O)C(O)=C1O (stereo not drawn) [Example 40] | 25 | 99 | 65 | 38 | – | –
O=C1OC(CCN2c3cccc4cccc(c34)S2(=O)=O)C(O)=C1O (stereo not drawn) [Example 20, 3,4-Dihydroxy-5-[2-(1,8-naphthosultam)-N-ethyl]-2(5H)-furanone] | 13 | 91 | 61 | -15 | 38 | –
CCCCNS(=O)(=O)c1ccccc1C#CCCC1OC(=O)C(O)=C1O (stereo not drawn) [Example 31] | 23 | 81 | 73 | 37 | – | –
O=C1OC(CCC#Cc2ccccc2)C(O)=C1O (stereo not drawn) [Example 27, 3,4-Dihydroxy-5-[(4-phenyl)-3-butynyl]-2(5H)-furanone] | 20 | 42 | 59 | 5 | – | –
O=C1OC(CCSc2ccc3ccccc3c2)C(O)=C1O (stereo not drawn) [Example 26, 3,4-Dihydroxy-5-[2-(naphthyl-2-thio)ethyl]-2(5H)-furanone] | 12 | 101 | 77 | 12 | 54 | –
CC1(c2ccc(Cl)cc2)OC(=O)C(O)=C1O (stereo not drawn) [Example 4, 5-(4-Chlorophenyl)-3,4-dihydroxy-5-methyl-2(5H)-furanone] | 24 | 2 | 54 | 2 | – | –
CCCCCSCc1ccccc1C#CCCC1OC(=O)C(O)=C1O (stereo not drawn) [Example 34, 3,4-Dihydroxy-5-[(4-(2-(1-pentylthio)methyl)phenyl)-3-butynyl]-2(5H)-furanone] | 43 | 92 | 63 | 67 | – | –
O=C1OC(CCOc2ccc3ccccc3n2)C(O)=C1O (stereo not drawn) [Example 23, 3,4-Dihydroxy-5-[2-(quinoline-2-oxy)ethyl]-2(5H)-furanone] | -2 | 93 | – | – | – | –
CCCSCc1ccccc1C#CCCC1OC(=O)C(O)=C1O (stereo not drawn) [Example 33, 3,4-Dihydroxy-5-[(4-(2-(propylthio)methyl)phenyl)-3-butynyl]-2(5H)-furanone] | 20 | 84 | 74 | 37 | – | –
Cc1ccccc1C#CCCC1OC(=O)C(O)=C1O (stereo not drawn) [Example 28, 3,4-Dihydroxy-5-[(4-(2-methyl)phenyl)-3-butynyl]-2(5H)-furanone] | 15 | 58 | 61 | 4 | – | –
O=C1OC(CCC#Cc2ccccc2CSc2ccccc2)C(O)=C1O (stereo not drawn) [Example 30, 3,4-Dihydroxy-5-[(4-(2-(phenylthio)methyl)phenyl)-3-butynyl]-2(5H)-furanone] | 16 | 100 | 62 | 26 | 70 | –
CC1(c2ccccc2)OC(=O)C(O)=C1O (stereo not drawn) [Example 1, 3,4-Dihydroxy-5-methyl-5-phenyl-2(5H)-furanone] | 3 | 58 | 63 | -12 | – | –
O=C1OC(CCOc2cccc3ccccc23)C(O)=C1O (stereo not drawn) [Example 18, 3,4-Dihydroxy-5-[2-(1-naphthoxy)ethyl]-2(5H)-furanone] | -12 | 99 | 71 | 11 | 49 | –
Cc1c(C)c2c(c(C)c1O)CCC(C)(CCCC(C)CCCC(C)CCCC(C)C)O2 (stereo not drawn) [alpha-tocopherol, reference compound] | – | – | – | – | – | 3.55
